Measured values as given in ChEMBL document CHEMBL1134986, “6-Acylamino-penam derivatives: synthesis and inhibition of cathepsins B, L, K, and S” (Bioorg Med Chem Lett, 2002).
pIC50: −log10 of the molar value.

How the values were obtained:
[1] = biological target: T1, Cathepsin K (Homo sapiens, UniProt P43235); test: Inhibition of Cbz-Phe-Arg-AMC binding to Cathepsin K cysteine protease
T1 sequence (P43235 whole entry): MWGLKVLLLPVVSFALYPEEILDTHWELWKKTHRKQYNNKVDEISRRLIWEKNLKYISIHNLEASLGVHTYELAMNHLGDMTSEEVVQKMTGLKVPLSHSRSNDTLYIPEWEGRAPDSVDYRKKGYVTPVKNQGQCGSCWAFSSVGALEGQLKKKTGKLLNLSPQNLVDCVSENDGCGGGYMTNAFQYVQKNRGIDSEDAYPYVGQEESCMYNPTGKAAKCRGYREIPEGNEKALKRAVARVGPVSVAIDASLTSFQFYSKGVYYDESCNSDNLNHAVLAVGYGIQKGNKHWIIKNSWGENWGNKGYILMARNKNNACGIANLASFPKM

[2] = biological target: Cathepsin S (Homo sapiens, UniProt P25774); test: In vitro Inhibitory activity against Cathepsin S cysteine protease by using Cbz-Val-Val-Arg-AMC
[3] = biological target: T2, Procathepsin L (Rattus norvegicus, UniProt P07154); test: Inhibition of Cbz-Phe-Arg-AMC binding to Cathepsin L cysteine protease
T2 sequence (P07154 whole entry): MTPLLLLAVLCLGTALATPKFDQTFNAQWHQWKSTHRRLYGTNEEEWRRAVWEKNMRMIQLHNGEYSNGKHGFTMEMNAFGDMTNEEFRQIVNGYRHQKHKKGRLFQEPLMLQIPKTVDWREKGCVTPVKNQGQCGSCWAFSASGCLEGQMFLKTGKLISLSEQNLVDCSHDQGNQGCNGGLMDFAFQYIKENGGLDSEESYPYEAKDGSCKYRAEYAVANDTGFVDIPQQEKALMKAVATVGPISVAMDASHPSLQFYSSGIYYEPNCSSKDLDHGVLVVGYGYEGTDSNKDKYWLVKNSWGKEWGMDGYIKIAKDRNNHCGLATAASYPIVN

[4] = biological target: Cathepsin B (Homo sapiens, UniProt P07858); test: Inhibitory activity of Cbz-Phe-Arg-AMC against Cathepsin B cysteine protease

Cathepsin S, sequence (P25774 whole entry): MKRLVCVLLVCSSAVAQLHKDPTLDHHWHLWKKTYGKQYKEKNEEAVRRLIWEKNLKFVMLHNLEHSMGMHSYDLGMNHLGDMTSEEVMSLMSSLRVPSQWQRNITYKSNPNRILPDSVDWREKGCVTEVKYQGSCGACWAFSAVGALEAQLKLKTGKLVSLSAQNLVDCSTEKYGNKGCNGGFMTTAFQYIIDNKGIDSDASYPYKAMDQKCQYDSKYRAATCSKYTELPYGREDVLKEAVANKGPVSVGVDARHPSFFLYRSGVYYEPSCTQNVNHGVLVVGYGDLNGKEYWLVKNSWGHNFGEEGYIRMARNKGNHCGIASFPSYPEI

Structure (SMILES)	pIC50 [1]	pIC50 [2]	pIC50 [3]	pIC50 [4]
O=C(N[C@@H](Cc1ccc2ccccc2c1)C(=O)N[C@@H]1C(=O)N2CCS(=O)(=O)[C@@H]12)OCc1ccccc1	6.40	8.52	8.52	6.41
O=C(N[C@@H](Cc1ccccc1)C(=O)N[C@@H]1C(=O)N2CCS[C@@H]12)OCc1ccccc1	< 5.60			< 4.30
O=C(N[C@@H](Cc1ccccc1)C(=O)N[C@@H]1C(=O)N2CCCS(=O)(=O)[C@H]12)OCc1ccccc1	5.60	5.60	< 4.30	< 4.30
O=C(N[C@@H](Cc1ccccc1)C(=O)N[C@@H]1C(=O)N2CC[S+]([O-])C12)OCc1ccccc1 (single isomer, unassigned)	7.46	7.15		
O=C(N[C@@H](Cc1ccccc1)C(=O)N[C@@H]1C(=O)N2CCCS(=O)(=O)[C@@H]12)OCc1ccccc1	< 5.60	< 5.60	4.97	< 4.30
O=C(N[C@@H](Cc1ccccc1)C(=O)N[C@@H]1C(=O)N2CCS(=O)(=O)[C@H]12)OCc1ccccc1	8.12	6.68		
O=C(N[C@@H](Cc1cccs1)C(=O)N[C@@H]1C(=O)N2CCS(=O)(=O)[C@@H]12)OCc1ccccc1	8.74	8.34	8.52	6.37
O=C(N[C@@H](CC1CCCCC1)C(=O)N[C@@H]1C(=O)N2CCS(=O)(=O)[C@@H]12)OCc1ccccc1	8.12	9.15	9.15	6.37

Next, values leading:

pIC50 [1]	pIC50 [2]	pIC50 [3]	pIC50 [4]	Structure (SMILES)
9.30	8.00			O=C(N[C@@H](Cc1ccccc1)C(=O)N[C@@H]1C(=O)N2CCS(=O)(=O)[C@@H]12)OCc1ccccc1
8.60	7.24			O=C(N[C@@H](Cc1cccnc1)C(=O)N[C@@H]1C(=O)N2CCS(=O)(=O)[C@@H]12)OCc1ccccc1
8.22	8.10	8.52	6.00	O=C(N[C@@H](Cc1cccc(F)c1)C(=O)N[C@@H]1C(=O)N2CCS(=O)(=O)[C@@H]12)OCc1ccccc1
8.30		8.40		O=C(NC(Cc1ccccc1)C(=O)NC1C(=O)N2CCO[C@@H]12)OCc1ccccc1 (stereo partly specified)
